Test results: US20250339569A1, “CARBONIC ANHYDRASE IX LIGANDS” (priority 2021, published 2025)
pKd: −log10 of the molar value. Like-named read-outs stand apart in the source and are kept apart here.

How the values were obtained:
[1] = Dose range finding study by intravenous route with toxicokinetics; format: in vivo, beagle dogs; conditions: for Dose-normalized AUClast: AUClast divided by dose in μg/kg; for clearance / half-life / Vd / AUC(0-t) / level at […]: male, beagle, iv, mean n = 2; for clearance / half-life / Vd: dog, plasma; for Vd: read-out: Vss; for AUC(0-t) / level at […]: dog plasma; for level at […]: read-out: C15 min
Experimental: The following parameters and endpoints were evaluated: mortality, clinical observations, body weights, food consumption, local reactions, clinical pathology parameters (hematology, coagulation, and clinical chemistry), organ weights, and macroscopic examinations. Both animals were sampled for toxicokinetics (TK) on each dosing occasion (i.e., on day 1, day 5, day 9 and day 13) at: pre-dose, 15 min, 30 min, 1 h, 6 h and 24 h. Blood samples were collected in K2EDTA tubes. Plasma was prepared by centrifugation (2500 g for 10 minutes, +4° C.) within 1 hour after collection, and then frozen within 1 hour after centrifugation and stored at −80° C. […] Chromatographic separation was achieved using a Waters Acquity UPLC system with a Waters Acquity HSS T3 C18 2.1×50 mm, 1.8 μm column. Chromatography was conducted at 50° C. at a flow rate of 0.7 mL/min using a mobile phase consisting of A: acetonitrile, and B: 1% formic acid in water, according to the following linear gradient: 0 to 0.1 min: 90% B; 0.1 to 4.1 min: from 90% B to 74% B; 4.1 to 4.2 min: from 74% B to 5% B; 4.2 to 4.6 min: 5% B; 4.6 to 4.7 min: from 5% B to 90% B; 4.7-5.1 min; 90% B. Detection was performed using a Sciex API6600 TOF mass spectrometer. Toxicokinetic parameters were estimated from concentration-time data using Phoenix pharmacokinetic software (version 6.4, Certara L. P.). A non-compartmental approach consistent with the bolus intravenous injection was used for parameter estimation.

human CAIX = human CAIX (Homo sapiens, UniProt Q16790); assay: Radioligand saturation binding and equilibration on CHO-huCAIX; design: host or cells: CHO-VGT / CHO cells
Experimental: After attainment of equilibrium, the cells were harvested, and the bound fraction of the compounds was measured. The resulting saturation binding data were analyzed using Graph Pad Prism 8.3.
CHO cells transfected with human, dog, and mouse CAIX (CHO-huCA9 T04J-1/20 K1, CHO-dogCA9 T05J-9/20 K4, CHO-murCA9 T05J-3/20 K4) were obtained from InSCREENex (Germany).
A molar excess of 3BP-3565 was used as a blocking peptide to assess non-specific binding in autoradiographic studies. 3BP-3565 binds with a similar affinity to CAIX and blocks binding sites of test compounds. For the blocking solution, a 10 mM stock solution of 3BP-3565 was prepared by dissolution in DMSO.
CHO cells were maintained in Ham's medium supplemented with 10% fetal bovine serum, 2 mM L-glutamine, 100 U/mL Penicillin and 0.1 mg/mL streptomycin under standard cell culture conditions. The cells were grown in uncoated cell culture flasks (150 cm^2, Biochrom) to subconfluence and then split 1:2-1:3. Approximately 24 hours before the assay, cells were detached by incubation with Accutase and carefully tapping the flasks. Detached cells were resuspended in medium and collected by centrifugation (300 g, 5 min, RT). Cell pellets were resuspended in cell culture medium and counted using a particle counter (CASY Model TT, Scharfe Systems, Germany). Cell concentrations were adjusted to 3×10^5 mL^−1, and 1.000 μL per well of the suspension were dispensed into poly-D-lysine-coated flat-clear-bottom 24 well plates.
Compound radiolabeling was performed as follows. […] Then, 25 mg/mL methionine in 1 M sodium acetate buffer pH 5 was added at a final concentration of 0.1 M sodium acetate. Subsequently, the mixture was heated to 80° C. for 25 min, followed by cooling for 5 minutes. Finally, 20 μL of 200 mg/mL ascorbic acid solution, 2.5 μL of 5 mg/mL DTPA and 2.5 μL of 5% TWEEN-20 per 100 μL reaction mixture were added, resulting in the concentrated study solution. For quality control, an aliquot of the labeling solution was diluted 1:40 with 0.1% TWEEN-20 in 0.1 M sodium acetate buffer pH 5. Five microliters of the diluted labeling solution were injected onto a Poroshell SB-C18 2.1×50 mm, 2.7 μm column. HPLC analysis was performed as follows: Gradient A: H2O, 0.1% TFA, Gradient B: Acetonitrile (MeCN), gradient from 5% B to 70% B within 15 min, flow rate of 0.5 mL/min; detector: NaI, DAD 215 nm. The peak eluting with the dead volume represents free radionuclide, the peak eluting with the ligand-specific retention time as determined with a non-labeled sample represents the radiolabeled compound.
The assessment of the time needed until attainment of equilibration on CHO-huCAIX and CHO-dgCAIX was performed as follows. The 10 mM 3BP-3565 stock solution was diluted with assay medium (Ham's medium without additives) to prepare an 8-μM blocking working solution. The radiolabeling mixtures were diluted with assay medium to prepare 160 nM radioligand working solutions. Subsequently, 1.6 and 3.2 nM radioligand dilutions were prepared by diluting the radioligand working solutions 1:100 and 1:50, respectively, with assay medium. Approximately 24 hours after re-seeding (3×10^5 mL^−1 cells per well), the medium was aspirated, and the cells were washed once with assay medium (700 μL). To determine total binding, 700 μL of binding medium and 100 μL of the radioligand dilutions were added to the wells in triplicates.
To determine non-specific binding, 600 μL of binding medium, 100 μL of the […] 3BP-3565 blocking solution and 100 μL of the radioligand dilutions were added to the wells in triplicates. The plates were incubated for 1 h, 3 h, 6 h, and 8 h at 37° C. under standard cell culture conditions (5% CO2). At the end of the incubation time, the plates were placed on ice while aspirating the radioligand solutions. Subsequently, the cells were washed with ice-cold PBS (0.5 mL, 1 mL, 1 mL). […]

CC(C)C[C@@H]1NC(=O)[C@H](Cc2cccc(NC(=O)CCCS(N)(=O)=O)c2)NC(=O)[C@H](CC(=O)O)NC(=O)[C@H]2CCCN2C(=O)[C@H](CCC(=O)O)NC(=O)[C@@H](NC(=O)[C@H](CCC(N)=O)NC(=O)CN2CCN(C(=O)CN3CCN(CC(=O)O)CCN(CC(=O)O)CCN(CC(=O)O)CC3)CC2)CSCc2cccc(c2)CSC[C@@H](C(N)=O)NC(=O)[C@H](CO)NC(=O)[C@H](Cc2c[nH]c3ccccc23)NC(=O)[C@H]([C@@H](C)O)NC1=O [DPI-4452, DOTA-PPAc-Gln-[Cys(3MeBn)-Glu-pro-Asp-Af3(Cpsu)-Leu-Thr-Trp-Ser-Cys]-NH2]
Dose-normalized AUClast ([1]; Day 1, […] i.v.): 1.36
Dose-normalized AUClast ([1]; Day 5, 0.08 mg/kg i.v.): 1.46
Dose-normalized AUClast ([1]; Day 9, 0.4 mg/kg i.v.): 2.31
Dose-normalized AUClast ([1]; Day 13, 0.8 mg/kg i.v.): 4.42
dose proportionality of exposure ([1]; male beagle dogs, 25 to 800 μg/kg i.v.): exposure increased more than dose-proportionally
tolerability ([1]; male beagle dogs, i.v. bolus, ascending 25, 80, 400, 800 μg/kg/day): well tolerated systemically and locally
clearance ([1]; Day 1, 0.025 mg/kg i.v.): 11.7 mL/min/kg
half-life ([1]; Day 1, 0.025 mg/kg i.v.): 15 min
Vd ([1]; Day 1, 0.025 mg/kg i.v.): 0.22 L/kg
clearance ([1]; Day 9, 0.4 mg/kg i.v.): 6.83 mL/min/kg
half-life ([1]; Day 9, 0.4 mg/kg i.v.): 29.4 min
Vd ([1]; Day 9, 0.4 mg/kg i.v.): 0.24 L/kg
clearance ([1]; Day 13, 0.8 mg/kg i.v.): 3.52 mL/min/kg
half-life ([1]; Day 13, 0.8 mg/kg i.v.): 52.8 min
Vd ([1]; Day 13, 0.8 mg/kg i.v.): 0.32 L/kg
AUC(0-t) ([1]; Day 1, 0.025 mg/kg i.v.): 34 ng·h/mL
level at […] ([1]; Day 1, 0.025 mg/kg i.v.): 46.8 ng/mL
AUC(0-t) ([1]; Day 5, 0.08 mg/kg i.v.): 117 ng·h/mL
level at […] ([1]; Day 5, 0.08 mg/kg i.v.): 156 ng/mL
AUC(0-t) ([1]; Day 9, 0.4 mg/kg i.v.): 926 ng·h/mL
level at […] ([1]; Day 9, 0.4 mg/kg i.v.): 880 ng/mL
AUC(0-t) ([1]; Day 13, 0.8 mg/kg i.v.): 3530 ng·h/mL
level at […] ([1]; Day 13, 0.8 mg/kg i.v.): 2000 ng/mL

CC(C)C[C@@H]1NC(=O)[C@H](Cc2cccc(NC(=O)CCCS(N)(=O)=O)c2)NC(=O)[C@H](CC(=O)O)NC(=O)[C@H]2CCCN2C(=O)[C@H](CCC(=O)O)NC(=O)[C@@H](NC(=O)[C@H](CCC(N)=O)NC(=O)CN2CCN(C(=O)CN3CCN(CC(=O)O)CCN(CC(=O)O)CCN(CC(=O)O)CC3)CC2)CSCc2cccc(c2)CSC[C@@H](C(N)=O)NC(=O)[C@H](CO)NC(=O)[C@H](Cc2c[nH]c3ccccc23)NC(=O)[C@H]([C@@H](C)O)NC1=O [[^111In]In-DPI-4452, metal not drawn]
pKd (human CAIX; Mean pKd ± SD, CHO-huCAIX): 9.50
pKd (human CAIX; pKd, CHO-huCAIX, first independent experiment): 9.70
pKd (human CAIX; pKd, CHO-huCAIX, second independent experiment): 9.30
pKd (human CAIX; pKd, human CAIX expressed in CHO cells, 8 h at 37°C): ≥ 9.00
